Laboratory results as given in the supplement of paper PMC13380429.

What was measured:
Settings in all cases: 72 h
Calu-3 [1] = test: cell viability relative to DMSO; higher = less toxic
Vero E6 [2] = test: as above
Caco-2 [3] = test: as above
U2OS [4] = test: as above
HepG2 [5] = test: as above
Calu-3 [6] = test: relative viability EC50 (midpoint between 100% and the lowest measured viability); higher = less toxic
Vero E6 [7] = test: as above
Caco-2 [8] = test: as above
U2OS [9] = test: as above
HepG2 [10] = test: as above
Calu-3 [11] = test: drug sensitivity score (DSS) for viability; higher = more toxic; extreme values may be limits of the assay
Vero E6 [12] = test: as above
Caco-2 [13] = test: as above
U2OS [14] = test: as above
HepG2 [15] = test: as above

Structure (SMILES)	cell viability (Calu-3 [1]; 1 nM)	cell viability (Calu-3 [1]; 10 nM)	cell viability (Calu-3 [1]; 100 nM)	cell viability (Calu-3 [1]; 1000 nM)	cell viability (Calu-3 [1]; 10000 nM)	cell viability (Vero E6 [2]; 1 nM)	cell viability (Vero E6 [2]; 10 nM)	cell viability (Vero E6 [2]; 100 nM)	cell viability (Vero E6 [2]; 1000 nM)	cell viability (Vero E6 [2]; 10000 nM)	cell viability (Caco-2 [3]; 1 nM)	cell viability (Caco-2 [3]; 10 nM)	cell viability (Caco-2 [3]; 100 nM)	cell viability (Caco-2 [3]; 1000 nM)	cell viability (Caco-2 [3]; 10000 nM)	cell viability (U2OS [4]; 1 nM)	cell viability (U2OS [4]; 10 nM)	cell viability (U2OS [4]; 100 nM)	cell viability (U2OS [4]; 1000 nM)	cell viability (U2OS [4]; 10000 nM)	cell viability (HepG2 [5]; 1 nM)	cell viability (HepG2 [5]; 10 nM)	cell viability (HepG2 [5]; 100 nM)	cell viability (HepG2 [5]; 1000 nM)	cell viability (HepG2 [5]; 10000 nM)	relative viability EC50 (Calu-3 [6])	relative viability EC50 (Vero E6 [7])	relative viability EC50 (Caco-2 [8])	relative viability EC50 (U2OS [9])	relative viability EC50 (HepG2 [10])	drug sensitivity score (Calu-3 [11])	drug sensitivity score (Vero E6 [12])	drug sensitivity score (Caco-2 [13])	drug sensitivity score (U2OS [14])	drug sensitivity score (HepG2 [15])
CC(C)(C)c1cc(O)c(C(C)(C)C)cc1O [BHQ]	109%	94%	93.1%	97.9%	108%	98.3%	96%	103%	96.6%	91.8%	101%	96.9%	102%	95.7%	88.9%	101%	97.2%	103%	99.1%	99.8%	102%	95.8%	92.4%	97.9%	95.5%	> 10 µM	> 10 µM	> 10 µM	> 10 µM	> 10 µM	0	0	0.1	0	0
CCCCN1CCC(CNC(=O)c2c3n(c4ccccc24)CCCO3)CC1 [piboserod]	108%	91.9%	102%	104%	83%	93.1%	92.7%	95%	91.4%	95.9%	96%	99.8%	96.9%	99%	93.4%	97.7%	98.7%	97.7%	101%	91.9%	94.2%	106%	106%	98.5%	95.5%	> 10 µM	> 10 µM	> 10 µM	> 10 µM	> 10 µM	0.2	0	0	0	0
CCCCN(CCCC)C(=O)CN1C[C@H](c2ccc3c(c2)OCO3)[C@@H](C(=O)O)[C@@H]1c1ccc(OC)cc1 [atrasentan]	98.7%	94.6%	114%	104%	109%	104%	105%	98.8%	98.8%	104%	101%	99.8%	98.3%	88.3%	99.3%	94.4%	94.4%	102%	94.5%	106%	106%	104%	92.6%	104%	97.6%	> 10 µM	> 10 µM	> 10 µM	> 10 µM	> 10 µM	0	0	0	0	0
Cc1cc(C(N)=O)ccc1-n1c(CCC(=O)O)ccc1-c1ccc(-n2ccnc2)cc1 [N6022]	99.1%	98.5%	93.9%	95.5%	101%	99.3%	96.5%	94.8%	94%	106%	91.8%	99.5%	100%	104%	100%	96.7%	103%	97.7%	101%	97.2%	104%	89.6%	111%	107%	104%	> 10 µM	> 10 µM	> 10 µM	> 10 µM	> 10 µM	0	0	0	0	0
CCOC(=O)c1c(C)n(C)c2ccc(O)cc12 [mecarbinate]	101%	101%	98.6%	90.6%	106%	99.7%	98.4%	100%	92.9%	109%	95.1%	98.9%	96%	103%	105%	97.1%	102%	94.6%	100%	107%	107%	104%	105%	97.8%	107%	> 10 µM	> 10 µM	> 10 µM	> 10 µM	> 10 µM	0	0	0	0	0
Cc1cccc(Cc2c[nH]cn2)c1C [detomidine]	99.7%	93%	102%	103%	102%	91%	101%	90.5%	102%	106%	94.2%	94%	97.5%	86.7%	96.1%	101%	98.2%	103%	96.5%	101%	99.4%	101%	104%	113%	113%	> 10 µM	> 10 µM	> 10 µM	> 10 µM	> 10 µM	0	0	0	0	0
CC1Cc2ccccc2N1NC(=O)c1ccc(Cl)c(S(N)(=O)=O)c1 (stereo not given) [indapamide]	105%	110%	105%	96.7%	96%	100%	100%	103%	97.4%	92.9%	94.8%	96%	94.3%	94.8%	93.3%	101%	96.9%	97.9%	96.7%	98.3%	95.5%	95.7%	94.2%	99.5%	97.1%	> 10 µM	> 10 µM	> 10 µM	> 10 µM	> 10 µM	0	0	0	0	0
CN(CC[C@@H](Oc1ccc(-c2ccccc2)cc1)c1ccc(F)cc1)CC(=O)O [ALX-5407]	103%	85.9%	98.6%	98.3%	104%	101%	99.1%	97.7%	100%	96.4%	105%	98.9%	102%	94.8%	95.6%	98.3%	96.6%	99%	93.8%	98.7%	102%	108%	92.7%	95.7%	96.7%	> 10 µM	> 10 µM	> 10 µM	> 10 µM	> 10 µM	0	0	0	0	0
N[C@H](C(=O)O)c1cc(O)no1 [ibotenic-acid]	93%	93.7%	105%	93.6%	94%	102%	101%	99.1%	99.4%	100%	92.9%	94.2%	93.6%	97.2%	96.5%	97.8%	97.5%	96.6%	102%	92.4%	91.3%	104%	95.1%	93.3%	93.9%	> 10 µM	> 10 µM	> 10 µM	> 10 µM	> 10 µM	0	0	0	0	0
COc1ccc(C2C(=O)c3ccccc3C2=O)cc1 [anisindione]	112%	106%	108%	95.7%	108%	95.1%	92.1%	94.7%	89.5%	105%	101%	93.8%	100%	98.3%	95.3%	101%	97.8%	102%	106%	105%	107%	111%	105%	108%	94.7%	> 10 µM	> 10 µM	> 10 µM	> 10 µM	> 10 µM	0	0	0	0	0
O=c1c2ccccc2nc2n1CCc1c-2[nH]c2ccccc12 [rutaecarpine]	87%	102%	98.8%	111%	87.9%	103%	104%	98.3%	100%	98.8%	102%	100%	92.9%	97.1%	91.6%	96.5%	101%	97%	106%	99.8%	104%	105%	98.7%	93.7%	76.4%	> 10 µM	> 10 µM	> 10 µM	> 10 µM	> 10 µM	0	0	0	0	1.7
COc1ccnc(C[S+]([O-])c2nc3cc(OC(F)F)ccc3[nH]2)c1OC (stereo not given) [pantoprazole]	99%	99.1%	98.4%	95.9%	94.8%	95.4%	97.1%	91.7%	91%	99.2%	99.5%	104%	98.7%	103%	89.4%	109%	105%	102%	101%	99.3%	106%	107%	111%	99.2%	117%	> 10 µM	> 10 µM	> 10 µM	> 10 µM	> 10 µM	0	0	0	0	0
Cc1cnc(Nc2ccc(N3CCN(C)CC3)cc2)nc1Nc1cccc(S(=O)(=O)NC(C)(C)C)c1	93%	95.1%	92.6%	86.1%	13.8%	93%	105%	94.9%	90.9%	0.2%	96.3%	101%	98.4%	64.3%	9.6%	92.1%	93.7%	100%	75.3%	0.5%	96.2%	105%	97.2%	57.9%	28.9%	1.92 µM	2.41 µM	1.2 µM	1.55 µM	0.8 µM	7.1	7	9.7	9.3	9
CC1(C)CNc2cc(NC(=O)c3cccnc3NCc3ccncc3)ccc21 [motesanib]	111%	99.6%	110%	110%	108%	97.3%	102%	94.9%	94%	96.9%	94.6%	95.5%	96.8%	92.1%	93.2%	103%	96.7%	97.9%	98.9%	96.8%	95.9%	94%	97.4%	93.5%	84.9%	> 10 µM	> 10 µM	> 10 µM	> 10 µM	> 10 µM	0	0	0	0	0.1
